# Reference: ChEMBL document CHEMBL1201862, “PubChem BioAssay data set” (2004)
# Active and inactive are the calls of the source. Rule as the data show it, for most assays here: actives have a measured EC50 and inactives only a lower limit.
# How the values were obtained:
# Cytochrome P450 1A2 = target: T1, Cytochrome P450 1A2 (Homo sapiens, UniProt P05177);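 also: PubChem cytochrome P450 panel assay, CYP1A2 panel member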
# T1 sequence (P05177 whole entry): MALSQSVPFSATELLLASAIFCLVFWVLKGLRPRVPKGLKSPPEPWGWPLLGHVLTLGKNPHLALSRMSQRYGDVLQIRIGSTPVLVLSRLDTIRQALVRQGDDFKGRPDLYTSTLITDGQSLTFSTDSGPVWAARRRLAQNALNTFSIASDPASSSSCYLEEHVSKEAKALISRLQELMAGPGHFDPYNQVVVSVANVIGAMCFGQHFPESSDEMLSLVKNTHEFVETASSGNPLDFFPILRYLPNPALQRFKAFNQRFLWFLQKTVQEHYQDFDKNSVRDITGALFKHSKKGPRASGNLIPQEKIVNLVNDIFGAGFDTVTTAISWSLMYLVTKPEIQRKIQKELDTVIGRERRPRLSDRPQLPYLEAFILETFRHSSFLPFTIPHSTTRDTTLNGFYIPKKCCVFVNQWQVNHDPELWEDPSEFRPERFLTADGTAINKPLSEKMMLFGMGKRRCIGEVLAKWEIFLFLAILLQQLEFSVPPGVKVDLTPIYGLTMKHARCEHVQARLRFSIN
# Cytochrome P450 2D6 = Cytochrome P450 2D6 (Homo sapiens, UniProt P10635);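 also: CYP2D6 member of a cytochrome P450 panel assay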
# Cytochrome P450 2C9 = Cytochrome P450 2C9 (Homo sapiens, UniProt P11712)
# [1] = Luminescence Cell-Based Dose Retest to Confirm Inhibitors of Cancer Stem Cells. [Related pubchem assays (depositor defined):AID2717, AID2721]; format: functional; settings: Homo sapiens
# [2] = inhibitors of firefly luciferase expression or activity, dose response, H4 neuroglioma cells, luminescence (AID 1990); format: functional, cell-based
# [3] = Luminescence Cell-Based Dose Response HTS to Identify Inhibitors of 5'UTR Stem-Loop Driven Prion Protein mRNA Translation in H4 Neuroglioblastoma Cells. [Related pubchem assays: 1827 (Project Summary), 1813 (Primary HTS)]; format: functional
# [4] = inhibitors of SNCA 5'UTR-driven reporter translation, confirmation, H4 neuroglioma cells, luminescence (AID 1988); format: functional, cell-based
# Paired box protein Pax-8 = Paired box protein Pax-8 (Homo sapiens, UniProt Q06710); experiment: inhibitors of PAX8-driven TPO luciferase reporter, dose response, RMG-I cells, cherry-pick (AID 687027); format: functional, cell-based;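 also: luciferase reporter driven by Pax8 target thyroperoxidase promoter measured by SteadyGlo luminescence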
# [5] = target: T2, Heat shock factor protein 1 (Mus musculus, UniProt P38532); experiment: HSF1 potentiators in luciferase reporter cells, confirmation, cell-based, NIH3T3, luminescence, dose retest (AID 435004); format: functional;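 also: stress induced by proteasome inhibitor MG132 added 30 min after compound; luciferase reporter driven by HSF1 response element in NIH3T3 cells; actives raise luminescence as potentiators of the MG132 stress response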
# T2 sequence (P38532 whole entry): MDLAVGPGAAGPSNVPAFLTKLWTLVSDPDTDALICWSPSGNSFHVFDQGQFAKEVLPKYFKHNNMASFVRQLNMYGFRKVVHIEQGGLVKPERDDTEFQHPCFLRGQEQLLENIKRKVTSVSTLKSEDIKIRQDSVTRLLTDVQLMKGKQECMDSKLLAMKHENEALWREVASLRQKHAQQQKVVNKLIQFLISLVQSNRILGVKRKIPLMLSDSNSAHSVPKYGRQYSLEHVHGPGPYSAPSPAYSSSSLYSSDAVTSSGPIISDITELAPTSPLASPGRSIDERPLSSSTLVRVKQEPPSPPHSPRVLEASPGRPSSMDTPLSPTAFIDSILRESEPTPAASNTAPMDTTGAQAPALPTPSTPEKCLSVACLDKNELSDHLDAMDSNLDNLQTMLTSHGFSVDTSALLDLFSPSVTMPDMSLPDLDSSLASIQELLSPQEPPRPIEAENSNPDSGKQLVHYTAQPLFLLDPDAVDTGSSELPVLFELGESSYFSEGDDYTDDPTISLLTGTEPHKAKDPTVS
# Streptokinase A = target: T3, Streptokinase A (Streptococcus pyogenes serotype M1, UniProt P10520); experiment: S. pyogenes streptokinase expression inhibitors, potency, dose response, plasminogen activation absorbance, OD405 (AID 1914); format: functional, Streptococcus pyogenes M1 GAS;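 also: secreted streptokinase activity via plasminogen activation per viability signal from cell pellet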
# T3 sequence (P10520 whole entry): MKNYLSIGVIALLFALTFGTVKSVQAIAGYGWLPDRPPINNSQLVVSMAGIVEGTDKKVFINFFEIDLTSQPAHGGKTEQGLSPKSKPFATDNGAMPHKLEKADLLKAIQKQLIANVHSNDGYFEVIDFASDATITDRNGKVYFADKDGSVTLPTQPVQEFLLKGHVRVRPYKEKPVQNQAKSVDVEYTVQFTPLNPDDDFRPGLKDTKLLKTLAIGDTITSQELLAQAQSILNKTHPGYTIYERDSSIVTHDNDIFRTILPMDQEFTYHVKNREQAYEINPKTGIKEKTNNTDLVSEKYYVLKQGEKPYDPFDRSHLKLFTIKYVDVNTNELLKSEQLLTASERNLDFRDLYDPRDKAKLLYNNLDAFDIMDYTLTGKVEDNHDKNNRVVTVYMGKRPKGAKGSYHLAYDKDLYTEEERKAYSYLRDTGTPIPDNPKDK
# [6] = system: Streptococcus sp. 'group A'; experiment: growth inhibition of control SK(-) GAS strain, dose response, counter-screen for streptokinase expression inhibitor project, luminescence, kanamycin, BacTiterGlo, confirmation (AID 1900); format: functional, organism-based
# Streptococcus = experiment: Group A Streptococcus viability loss, dose response, counter-screen for streptokinase expression inhibitor project, luminescence, BacTiterGlo (AID 1915); format: functional, organism-based;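 also: potency for reduction of bacterial viability or growth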
# INS1 = experiment: beta cell apoptosis inhibitors, cytokine rescue, dose response, luminescence, retest (AID 449756); format: functional, cell-based; settings: Rattus norvegicus;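 also: cell death triggered by IL-1 beta plus TNF-alpha plus IFN-gamma mixture; protective hits raise ATP signal compared with cytokine alone wells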
# [7] = cytotoxicity toward NIH3T3 fibroblasts, dose response, counter-screen, cell-based, ATP luminescence, mouse fibroblasts (AID 2010); format: functional;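 also: cells exposed to compound for about 90 hours before reading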
# [8] = inhibitors of intracellular T. cruzi replication, confirmation, NIH3T3 host cells, beta-gal luminescence (AID 2044); format: functional, cell-based;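 also: intracellular parasites grown in NIH/3T3 mouse fibroblasts as host cells; luminescent beta-galactosidase reporter signal from transgenic T. cruzi replicating inside host cells; inhibitors lower the luminescence signal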
# Chain of Cytochrome P450 2C9 (P11712 whole entry): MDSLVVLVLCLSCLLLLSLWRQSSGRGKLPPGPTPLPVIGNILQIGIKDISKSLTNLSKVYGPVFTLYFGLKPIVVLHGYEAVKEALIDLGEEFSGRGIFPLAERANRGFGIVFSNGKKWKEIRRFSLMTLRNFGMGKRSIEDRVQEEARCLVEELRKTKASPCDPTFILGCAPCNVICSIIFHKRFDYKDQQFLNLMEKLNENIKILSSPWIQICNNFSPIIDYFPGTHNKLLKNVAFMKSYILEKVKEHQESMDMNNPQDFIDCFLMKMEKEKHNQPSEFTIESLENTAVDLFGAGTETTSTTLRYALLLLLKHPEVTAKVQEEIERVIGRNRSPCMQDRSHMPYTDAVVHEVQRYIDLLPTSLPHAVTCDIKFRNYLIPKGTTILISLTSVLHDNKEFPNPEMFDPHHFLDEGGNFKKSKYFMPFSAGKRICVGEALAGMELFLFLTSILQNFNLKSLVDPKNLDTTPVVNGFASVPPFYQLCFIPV
# Chain of Cytochrome P450 2D6 (P10635 whole entry): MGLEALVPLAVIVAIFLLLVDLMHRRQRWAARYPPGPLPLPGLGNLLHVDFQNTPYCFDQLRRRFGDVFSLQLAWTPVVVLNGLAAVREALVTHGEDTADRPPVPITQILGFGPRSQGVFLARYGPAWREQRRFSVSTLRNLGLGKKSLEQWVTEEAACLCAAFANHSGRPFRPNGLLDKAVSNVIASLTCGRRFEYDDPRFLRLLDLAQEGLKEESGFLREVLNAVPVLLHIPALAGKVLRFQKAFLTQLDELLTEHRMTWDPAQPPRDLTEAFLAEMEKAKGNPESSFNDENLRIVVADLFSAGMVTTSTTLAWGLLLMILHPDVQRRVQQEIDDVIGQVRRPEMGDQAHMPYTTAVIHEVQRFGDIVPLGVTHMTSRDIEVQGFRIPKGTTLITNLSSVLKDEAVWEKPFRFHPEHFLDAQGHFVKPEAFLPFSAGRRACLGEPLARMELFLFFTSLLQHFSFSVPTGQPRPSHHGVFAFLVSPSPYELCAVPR
# Chain of Paired box protein Pax-8 (Q06710 whole entry): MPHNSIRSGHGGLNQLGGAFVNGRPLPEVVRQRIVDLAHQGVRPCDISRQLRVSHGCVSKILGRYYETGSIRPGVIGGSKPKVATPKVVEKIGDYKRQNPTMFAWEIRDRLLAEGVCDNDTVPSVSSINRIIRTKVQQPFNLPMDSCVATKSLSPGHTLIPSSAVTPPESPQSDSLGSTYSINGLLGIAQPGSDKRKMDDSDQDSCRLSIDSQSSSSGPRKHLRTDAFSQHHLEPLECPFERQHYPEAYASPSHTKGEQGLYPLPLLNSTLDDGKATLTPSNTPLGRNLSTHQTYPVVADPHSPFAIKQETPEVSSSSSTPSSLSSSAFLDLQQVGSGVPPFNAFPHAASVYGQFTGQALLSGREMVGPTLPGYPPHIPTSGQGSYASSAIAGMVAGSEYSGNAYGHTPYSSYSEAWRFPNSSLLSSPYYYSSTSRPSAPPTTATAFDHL
structure (smiles),measurement,setting,value
CCNc1ncc2nc(-c3ccc(F)cc3)c(=O)n(CCC#N)c2n1,AC50,Cytochrome P450 1A2,0.631 µM (inconclusive)
same,AC50,Cytochrome P450 2D6,0.1 µM (inconclusive)
CCC/C=C(\CCC)C(NC(=O)c1cccs1)c1ccc(C(F)(F)F)cc1 (configuration not stated),AC50,Cytochrome P450 1A2,3.16 µM (inconclusive)
same,AC50,Cytochrome P450 2C9,0.501 µM (inconclusive)
Cc1nn(-c2ccc(F)cc2)c(Cl)c1/C=C1\C(=O)Nc2ccccc21,AC50,[1],1.95 µM (active)
CC(=O)c1c(O)c(C)c(-c2ccccc2)n(-c2ccccc2)c1=O,AC50,Cytochrome P450 1A2,6.31 µM (inconclusive)
Cc1cc(-c2ccccc2)nnc1NCCN1CCOCC1 [MINAPRINE],AC50,Cytochrome P450 1A2,10 µM (inconclusive)
same,AC50,Cytochrome P450 2D6,7.94 µM (inconclusive)
COC(=O)c1cn(-c2ccc(Cl)cc2)c(=O)c2ccccc12,EC50,[2],16.2 µM (active)
same,EC50,[3],> 60 µM (not active)
same,EC50,[4],> 120 µM (not active)
Oc1ccc(C[C@H]2CNC(=S)N2CC2CCCN2C[C@H](Cc2ccc(O)cc2)N2C[C@H](Cc3ccc(O)cc3)N(CC3CCCCC3)C2=S)cc1 (some centres not stated),AC50,Paired box protein Pax-8,6.44 µM (active)
Cc1nnc(SCC2=C(C(=O)O)N3C(=O)C(NC(=O)c4cccc(F)c4F)C3SC2)s1 (configuration not stated),EC50,[5],246 µM (active)
same,EC50,Streptokinase A,> 150 µM (not active)
same,EC50,[6],0.377 µM (active)
same,EC50,Streptococcus,1.01 µM (active)
O=C(Oc1ccccc1N1C(=O)C2CCCCC2C1=O)c1ccccc1 (configuration not stated),AC50,Cytochrome P450 1A2,15.8 µM (inconclusive)
same,AC50,Cytochrome P450 2C9,11.2 µM (inconclusive)
O=C(NCCCN1CCN(C2CCCCC2)CC1)Nc1ccccc1C(F)(F)F,AC50,Cytochrome P450 1A2,25.1 µM (inconclusive)
c1ccc(-c2nnc(CSc3ccc4c(c3)OCCO4)o2)cc1,AC50,INS1,> 260 µM (inactive)
O=C(Nc1cc(Sc2ccccn2)cc([N+](=O)[O-])c1)c1ccc(Cl)cc1,AC50,INS1,5.46 µM (active)
Cc1cccc(NC(=O)c2nc[nH]c2C(=O)N[C@@H](C)c2ccccc2)c1,AC50,[1],7.02 µM (active)
OC(COCc1ccccc1)Cn1cnc2ccccc21 (configuration not stated),AC50,Cytochrome P450 1A2,15.8 µM (inconclusive)
Cc1ccc(Oc2nnc(-c3ccccc3)cc2C#N)cc1,AC50,Cytochrome P450 1A2,2.51 µM (inconclusive)
CC1CCc2c(sc3nc(C4CC4)nc(N4CCN(C(=O)c5ccco5)CC4)c23)C1 (configuration not stated),EC50,Streptokinase A,3.24 µM (active)
same,AC50,INS1,4.18 µM (active)
same,EC50,[6],3.48 µM (active)
same,EC50,Streptococcus,9.93 µM (active)
C/C(=N\NC(=S)NC(C)C)c1ccc(C(C)(C)C)cc1,AC50,[1],11 µM (active)
COc1ccc(-n2cnnc2)cc1,AC50,Cytochrome P450 1A2,14.1 µM (inconclusive)
same,AC50,Cytochrome P450 2C9,0.0282 µM (inconclusive)
COc1cccc(S(=O)(=O)N2CC[C@H]3[C@@H](CO)N(C)c4ccc(C#Cc5ccc(F)cc5)cc4[C@H]32)c1,AC50,Paired box protein Pax-8,6.92 µM (active)
Clc1ccc(SCc2cc(Cl)nc(-c3ccccc3)n2)cc1,EC50,Streptokinase A,17 µM (active)
same,EC50,[6],> 150 µM (not active)
same,EC50,Streptococcus,> 150 µM (not active)
O=C(CNC(=O)c1ccc(F)cc1)N/N=C/c1cc(Br)ccc1OCc1ccccc1,EC50,Streptokinase A,> 150 µM (not active)
same,EC50,[6],10.3 µM (active)
same,EC50,Streptococcus,32.6 µM (active)
COc1ccc(-c2noc(CSc3nnc(CCc4ccccc4)n3-c3ccccc3)n2)cc1OC,EC50,[2],14 µM (active)
same,EC50,[3],14.5 µM (active)
same,EC50,[4],> 120 µM (not active)
COC(=O)c1cc2ccsc2n1CC(=O)Nc1cc(Cl)ccc1OC,EC50,[2],18.8 µM (active)
same,EC50,[3],> 120 µM (not active)
same,EC50,[4],10.9 µM (active)
Oc1c(Br)cc(Br)cc1CNc1ccc(F)cc1,EC50,Streptokinase A,84.4 µM (active)
same,EC50,[6],20.4 µM (active)
same,EC50,Streptococcus,> 150 µM (not active)
COc1ccc(/C(O)=C/C2=NCCc3cc(OC)c(OC)cc32)cc1OC,EC50,[2],> 120 µM (not active)
same,EC50,[3],> 120 µM (not active)
same,EC50,[4],84.3 µM (active)
Cc1nc2ccccc2nc1-c1ccc(/N=[N+](\[O-])c2ccc(-c3nc4ccccc4nc3C)cc2)cc1,AC50,Cytochrome P450 1A2,6.31 µM (inconclusive)
Cc1cc(=O)n2nc(N3CCCC(C(=O)N4CCc5ccccc54)C3)sc2n1 (configuration not stated),EC50,[2],22.1 µM (active)
same,EC50,[3],> 120 µM (not active)
same,EC50,[4],34.1 µM (active)
O=C(CSc1nnc(CNC(=O)c2c(F)cccc2F)o1)NCc1ccccc1,EC50,Streptokinase A,> 150 µM (not active)
same,EC50,[6],> 150 µM (not active)
same,EC50,Streptococcus,> 150 µM (not active)
O=C(NCCCn1ccnc1)c1ccc(-c2ccccc2)cc1,AC50,INS1,7.41 µM (active)
O=C(Nc1nnc(SCc2ccccc2Cl)s1)C1COc2ccccc2O1 (configuration not stated),EC50,Streptokinase A,7.36 µM (active)
same,EC50,[6],4.52 µM (active)
same,EC50,Streptococcus,16.7 µM (active)
COc1ccc(CNC(=O)C2CCN(c3nc(OC)nc(OC)n3)CC2)cc1,EC50,[2],> 120 µM (not active)
same,EC50,[3],> 120 µM (not active)
same,EC50,[4],> 120 µM (not active)
CCN(CC)c1ccc(NC(=O)COc2ccc(C#N)cc2)cc1S(=O)(=O)Nc1ccc(OC)cc1,EC50,[2],20.6 µM (active)
same,EC50,[3],> 120 µM (not active)
same,EC50,[4],92.7 µM (active)
Clc1cc(I)cc(Cl)c1N=C1NCCN1 [PI-CLONIDINE],AC50,Cytochrome P450 1A2,15.8 µM (inconclusive)
O=c1c(CCc2ccccc2)nc2cnc(N3CCNCC3)nc2n1-c1ccccc1,AC50,Cytochrome P450 1A2,15.8 µM (inconclusive)
Nc1sc(-c2ccccc2)n[n+]1Cc1cccc2cccnc12,EC50,[2],> 120 µM (not active)
same,EC50,[3],> 120 µM (not active)
same,EC50,[4],> 120 µM (not active)
same,EC50,[7],> 60 µM (not active)
same,EC50,[8],2.77 µM (active)
O=C(Cc1ccccc1)N/N=C/c1ccccn1,EC50,Streptokinase A,> 150 µM (not active)
same,EC50,[6],> 150 µM (not active)
same,EC50,Streptococcus,> 150 µM (not active)
